# Data published in PubChem BioAssay (NCI).
#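 1) Cells in 96-well plates. 2) Compound, 48 h, 5 concentrations. 3) Linear interpolation between surrounding doses. 4) Unreached endpoint = highest concentration. The concentration for 50% growth inhibition is given as GI50. At the TGI there is no net growth.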
# What was measured:
# Assay in all cases: DTP human tumour cell line panel, 48 h
# SN12C renal = system: SN12C renal
# NCI-H460 lung = system: NCI-H460 lung
# SK-MEL-5 melanoma = system: SK-MEL-5 melanoma
# SF-539 CNS = system: SF-539 CNS
# SR leukemia = system: SR leukemia
# NCI-H23 lung = system: NCI-H23 lung
# SK-MEL-2 melanoma = system: SK-MEL-2 melanoma
# SF-295 CNS = system: SF-295 CNS
# EKVX NSCLC = system: EKVX NSCLC
# ACHN renal = system: ACHN renal
# MALME-3M melanoma = system: MALME-3M melanoma
# OVCAR-3 ovarian = system: OVCAR-3 ovarian
# A498 renal = system: A498 renal
# LOX IMVI melanoma = system: LOX IMVI melanoma
# SNB-19 CNS = system: SNB-19 CNS
# DU-145 prostate = system: DU-145 prostate
# UO-31 renal = system: UO-31 renal
# HCC-2998 colon = system: HCC-2998 colon
# SW-620 colon = system: SW-620 colon
# OVCAR-4 ovarian = system: OVCAR-4 ovarian
# CCRF-CEM leukemia = system: CCRF-CEM leukemia
# SK-MEL-28 melanoma = system: SK-MEL-28 melanoma
# BT-549 breast = system: BT-549 breast
# CAKI-1 renal = system: CAKI-1 renal
# SF-268 CNS = system: SF-268 CNS
# HOP-92 NSCLC = system: HOP-92 NSCLC
# TK-10 renal = system: TK-10 renal
# HCT-15 colon = system: HCT-15 colon
# RXF 393 renal = system: RXF 393 renal
# KM12 colon = system: KM12 colon
# IGROV1 ovarian = system: IGROV1 ovarian
# UACC-62 melanoma = system: UACC-62 melanoma
# MDA-MB-435 = system: MDA-MB-435
# PC-3 prostate = system: PC-3 prostate
# OVCAR-5 ovarian = system: OVCAR-5 ovarian
# SNB-75 CNS = system: SNB-75 CNS
# MDA-MB-231 breast = system: MDA-MB-231 breast
# MCF7 breast = system: MCF7 breast
# SK-OV-3 ovarian = system: SK-OV-3 ovarian
# MOLT-4 leukemia = system: MOLT-4 leukemia
# HT29 colon = system: HT29 colon
# K-562 leukemia = system: K-562 leukemia
# HL-60(TB) leukemia = system: HL-60(TB) leukemia
# U251 CNS = system: U251 CNS
# HCT-116 colon = system: HCT-116 colon
# NCI-H226 lung = system: NCI-H226 lung
# T-47D breast = system: T-47D breast
# A549 NSCLC = system: A549 NSCLC
# UACC-257 melanoma = system: UACC-257 melanoma
# 786-0 renal = system: 786-0 renal
# HOP-62 NSCLC = system: HOP-62 NSCLC
# NCI/ADR-RES ovarian = system: NCI/ADR-RES ovarian
# OVCAR-8 ovarian = system: OVCAR-8 ovarian
# M14 melanoma = system: M14 melanoma
# RPMI-8226 leukemia = system: RPMI-8226 leukemia
# COLO 205 colon = system: COLO 205 colon
smiles,measurement,setting,value
CN1CCN(CCCOc2ccc3ncnc(Nc4ccc(OCc5cccc(F)c5)c(Cl)c4)c3c2)CC1,GI50,SN12C renal,1630 nM
same,TGI,SN12C renal,3100 nM
same,GI50,NCI-H460 lung,1780 nM
same,TGI,NCI-H460 lung,3380 nM
same,GI50,SK-MEL-5 melanoma,1670 nM
same,TGI,SK-MEL-5 melanoma,3040 nM
same,GI50,SF-539 CNS,1670 nM
same,TGI,SF-539 CNS,3090 nM
same,GI50,SR leukemia,379 nM
same,TGI,SR leukemia,1790 nM
same,GI50,NCI-H23 lung,1690 nM
same,TGI,NCI-H23 lung,3200 nM
same,GI50,SK-MEL-2 melanoma,2070 nM
same,TGI,SK-MEL-2 melanoma,4040 nM
same,GI50,SF-295 CNS,1770 nM
same,TGI,SF-295 CNS,3190 nM
same,GI50,EKVX NSCLC,1140 nM
same,TGI,EKVX NSCLC,2470 nM
same,GI50,ACHN renal,639 nM
same,TGI,ACHN renal,1950 nM
same,GI50,MALME-3M melanoma,1650 nM
same,TGI,MALME-3M melanoma,3230 nM
same,GI50,OVCAR-3 ovarian,1480 nM
same,TGI,OVCAR-3 ovarian,2920 nM
same,GI50,A498 renal,1130 nM
same,TGI,A498 renal,2420 nM
same,GI50,LOX IMVI melanoma,1750 nM
same,TGI,LOX IMVI melanoma,3230 nM
same,GI50,SNB-19 CNS,1500 nM
same,TGI,SNB-19 CNS,2870 nM
same,GI50,DU-145 prostate,1100 nM
same,TGI,DU-145 prostate,2350 nM
same,GI50,UO-31 renal,1180 nM
same,TGI,UO-31 renal,2490 nM
same,GI50,HCC-2998 colon,1700 nM
same,TGI,HCC-2998 colon,3170 nM
same,GI50,SW-620 colon,1730 nM
same,TGI,SW-620 colon,3280 nM
same,GI50,OVCAR-4 ovarian,1570 nM
same,TGI,OVCAR-4 ovarian,3350 nM
same,GI50,CCRF-CEM leukemia,1570 nM
same,TGI,CCRF-CEM leukemia,3530 nM
same,GI50,SK-MEL-28 melanoma,1720 nM
same,TGI,SK-MEL-28 melanoma,3190 nM
same,GI50,BT-549 breast,1580 nM
same,TGI,BT-549 breast,3000 nM
same,GI50,CAKI-1 renal,1130 nM
same,TGI,CAKI-1 renal,2340 nM
same,GI50,SF-268 CNS,1490 nM
same,TGI,SF-268 CNS,3150 nM
same,GI50,HOP-92 NSCLC,1150 nM
same,TGI,HOP-92 NSCLC,2540 nM
same,GI50,TK-10 renal,577 nM
same,TGI,TK-10 renal,2320 nM
same,GI50,HCT-15 colon,1060 nM
same,TGI,HCT-15 colon,2350 nM
same,GI50,RXF 393 renal,1580 nM
same,TGI,RXF 393 renal,3070 nM
same,GI50,KM12 colon,1730 nM
same,TGI,KM12 colon,3210 nM
same,GI50,IGROV1 ovarian,1020 nM
same,TGI,IGROV1 ovarian,2550 nM
same,GI50,UACC-62 melanoma,1700 nM
same,TGI,UACC-62 melanoma,3240 nM
same,GI50,MDA-MB-435,1610 nM
same,TGI,MDA-MB-435,3110 nM
same,GI50,PC-3 prostate,1740 nM
same,TGI,PC-3 prostate,3390 nM
same,GI50,OVCAR-5 ovarian,1600 nM
same,TGI,OVCAR-5 ovarian,3050 nM
same,GI50,SNB-75 CNS,1380 nM
same,TGI,SNB-75 CNS,2710 nM
same,GI50,MDA-MB-231 breast,1620 nM
same,TGI,MDA-MB-231 breast,3100 nM
same,GI50,MCF7 breast,1500 nM
same,TGI,MCF7 breast,2960 nM
COc1ccc2c(c1)c(-c1nonc1-c1cn(C)c3ccccc13)cn2C,GI50,SN12C renal,697 nM
same,TGI,SN12C renal,> 100000 nM
same,GI50,NCI-H460 lung,403 nM
same,TGI,NCI-H460 lung,> 100000 nM
same,GI50,SK-OV-3 ovarian,536 nM
same,TGI,SK-OV-3 ovarian,> 100000 nM
same,GI50,MOLT-4 leukemia,668 nM
same,TGI,MOLT-4 leukemia,> 100000 nM
same,GI50,SF-539 CNS,312 nM
same,TGI,SF-539 CNS,1530 nM
same,GI50,SR leukemia,313 nM
same,TGI,SR leukemia,> 100000 nM
same,GI50,NCI-H23 lung,996 nM
same,TGI,NCI-H23 lung,> 100000 nM
same,GI50,SK-MEL-2 melanoma,554 nM
same,TGI,SK-MEL-2 melanoma,> 100000 nM
same,GI50,HT29 colon,357 nM
same,TGI,HT29 colon,> 100000 nM
same,GI50,SF-295 CNS,343 nM
same,TGI,SF-295 CNS,> 100000 nM
same,GI50,EKVX NSCLC,1110 nM
same,TGI,EKVX NSCLC,> 100000 nM
same,GI50,ACHN renal,621 nM
same,TGI,ACHN renal,> 100000 nM
same,GI50,MALME-3M melanoma,675 nM
same,TGI,MALME-3M melanoma,> 100000 nM
same,GI50,OVCAR-3 ovarian,336 nM
same,TGI,OVCAR-3 ovarian,8750 nM
same,GI50,A498 renal,332 nM
same,TGI,A498 renal,988 nM
same,GI50,LOX IMVI melanoma,588 nM
same,TGI,LOX IMVI melanoma,> 100000 nM
same,GI50,SNB-19 CNS,556 nM
same,TGI,SNB-19 CNS,> 100000 nM
same,GI50,DU-145 prostate,528 nM
same,TGI,DU-145 prostate,> 100000 nM
same,GI50,K-562 leukemia,300 nM
same,TGI,K-562 leukemia,> 100000 nM
same,GI50,HL-60(TB) leukemia,340 nM
same,GI50,U251 CNS,440 nM
same,TGI,U251 CNS,> 100000 nM
same,GI50,HCT-116 colon,441 nM
same,TGI,HCT-116 colon,> 100000 nM
same,GI50,UO-31 renal,430 nM
same,TGI,UO-31 renal,> 100000 nM
same,GI50,HCC-2998 colon,1110 nM
same,TGI,HCC-2998 colon,> 100000 nM
same,GI50,NCI-H226 lung,998 nM
same,TGI,NCI-H226 lung,> 100000 nM
same,GI50,SW-620 colon,367 nM
same,TGI,SW-620 colon,> 100000 nM
same,GI50,OVCAR-4 ovarian,1680 nM
same,TGI,OVCAR-4 ovarian,> 100000 nM
same,GI50,CCRF-CEM leukemia,374 nM
same,TGI,CCRF-CEM leukemia,> 100000 nM
same,GI50,T-47D breast,542 nM
same,TGI,T-47D breast,> 100000 nM
same,GI50,A549 NSCLC,629 nM
same,TGI,A549 NSCLC,> 100000 nM
same,GI50,BT-549 breast,798 nM
same,TGI,BT-549 breast,> 100000 nM
same,GI50,UACC-257 melanoma,463 nM
same,TGI,UACC-257 melanoma,> 100000 nM
same,GI50,CAKI-1 renal,382 nM
same,TGI,CAKI-1 renal,> 100000 nM
same,GI50,786-0 renal,628 nM
same,TGI,786-0 renal,> 100000 nM
same,GI50,SF-268 CNS,1290 nM
same,TGI,SF-268 CNS,> 100000 nM
same,GI50,HOP-92 NSCLC,890 nM
same,TGI,HOP-92 NSCLC,> 100000 nM
same,GI50,TK-10 renal,2260 nM
same,TGI,TK-10 renal,> 100000 nM
same,GI50,HOP-62 NSCLC,670 nM
same,TGI,HOP-62 NSCLC,> 100000 nM
same,GI50,HCT-15 colon,456 nM
same,TGI,HCT-15 colon,> 100000 nM
same,GI50,NCI/ADR-RES ovarian,408 nM
same,TGI,NCI/ADR-RES ovarian,> 100000 nM
same,GI50,RXF 393 renal,270 nM
same,TGI,RXF 393 renal,1030 nM
same,GI50,KM12 colon,414 nM
same,TGI,KM12 colon,> 100000 nM
same,GI50,IGROV1 ovarian,577 nM
same,TGI,IGROV1 ovarian,> 100000 nM
same,GI50,UACC-62 melanoma,493 nM
same,TGI,UACC-62 melanoma,> 100000 nM
same,GI50,OVCAR-8 ovarian,570 nM
same,TGI,OVCAR-8 ovarian,> 100000 nM
same,GI50,MDA-MB-435,169 nM
same,TGI,MDA-MB-435,554 nM
same,GI50,M14 melanoma,373 nM
same,TGI,M14 melanoma,> 100000 nM
same,GI50,RPMI-8226 leukemia,634 nM
same,TGI,RPMI-8226 leukemia,> 100000 nM
same,GI50,PC-3 prostate,481 nM
same,TGI,PC-3 prostate,> 100000 nM
same,GI50,COLO 205 colon,479 nM
same,TGI,COLO 205 colon,> 100000 nM
same,GI50,OVCAR-5 ovarian,1250 nM
same,TGI,OVCAR-5 ovarian,> 100000 nM
same,GI50,SNB-75 CNS,198 nM
same,TGI,SNB-75 CNS,671 nM
same,GI50,MDA-MB-231 breast,877 nM
same,TGI,MDA-MB-231 breast,> 100000 nM
same,GI50,MCF7 breast,364 nM
same,TGI,MCF7 breast,> 100000 nM
